Measurements taken from patent US6806286B2, “Pyrrolecarboxamides and pyrrolethioamides as fungicides” (Syngenta Crop Protection, Inc., priority 2000, dated 2004).

Legend:
[1] = system: Podosphaera leucotricha; assay: Action against Podosphaera leucotricha/apple (powdery mildew on apple); format: in vivo; conditions: apple seedlings cv. McIntosh, spray 0.002% active ingredient, inoculated one day after application, assessed after 12 days incubation
Experimental: Action Against Podosphaera leucotricha/apple (Powdery Mildew on Apple)
5 week old apple seedlings cv. […] One day after application apple plants are inoculated by shaking plants infected with apple powdery mildew above the test plants. After an incubation period of 12 days at 22° C. and 60% r. h. under a light regime of 14/10 h (light/dark) the disease incidence is assessed.

[2] = system: Venturia Inaequalis; assay: Action against Venturia inaequalis/apple (scab on apple); format: in vivo; conditions: apple seedlings cv. McIntosh, spray 0.02% active ingredient, inoculated one day after application, assessed after 4+4+4 days incubation
Experimental: Action Against Venturia Inaequalis/apple (Scab on Apple)
4 week old apple seedlings cv. […] One day after application apple plants are inoculated by spraying a spore suspension (4×10^5 conidia/ml) on the test plants. After an incubation period of 4 days at 21° C. and 95% r. h. the plants are placed for 4 days at 21° C. and 60% r. h. in a greenhouse. After another 4 day incubation period at 21° C. and 95% r. h. the disease incidence is assessed.

[3] = system: Etysiphe graminis; assay: Action against Etysiphe graminis/barley (powdery mildew on barley); format: in vivo; conditions: barley plants cv. Express, spray 0.02% active ingredient, inoculated one day after application, assessed after 6 days incubation
Experimental: Action Against Etysiphe graminis/barley (Powdery Mildew on Barley)
1 week old barley plants cv. […] One day after application barley plants are inoculated by shaking powdery mildew infected plants above the test plants. After an incubation period of 6 days at 20° C./18° C. (day/night) and 60% r. h. in a greenhouse the disease incidence is assessed.

[4] = system: Botryis cinerea; assay: Action against Botryis cinerea/apple (Botrytis on apple fruits); format: in vivo, B. cinerea; conditions: apple fruit cv. Golden Delicious, 30 μl droplets 0.002% active ingredient in drilled holes, inoculated two hours after application, assessed after 7 days
Experimental: Action Against Botryis cinerea/apple (Botrytis on Apple Fruits)
In an apple fruit cv. […] Two hours after application 50 μl of a spore suspension of B. cinerea (4×10^5 conidia/ml) are pipetted on the application sites. After an incubation period of 7 days at 22° C. in a growth chamber the disease incidence is assessed.

[5] = system: Boftis cinerea; assay: Action against Boftis cinerea/grape (Botrytis on grapes); format: in vivo; conditions: grape seedlings cv. Gutedel, spray 0.002% active ingredient, inoculated two days after application, assessed after 4 days incubation
Experimental: Action Against Boftis cinerea/grape (Botrytis on Grapes)
5 week old grape seedlings cv. […] Two days after application grape plants are inoculated by spraying a spore suspension (1×10^6 conidia/ml) on the test plants. After an incubation period of 4 days at 21° C. and 95% r. h. in a greenhouse the disease incidence is assessed.

[6] = system: Botryts cinerea; assay: Action against Botryts cinerea/tomato (Botrytis on tomatoes); format: in vivo; conditions: tomato plants cv. Roter Gnom, spray 0.002% active ingredient, inoculated two days after application, assessed after 4 days incubation
Experimental: Action Against Botryts cinerea/tomato (Botrytis on Tomatoes)
4 week old tomato plants cv. […] Two days after application tomato plants are inoculated by spraying a spore suspension (1×10^5 conidia/ml) on the test plants. After an incubation period of 4 days at 20° C. and 95% r. h. in a growth chamber the disease incidence is assessed.

[7] = system: Puenophora teres; assay: Action against Puenophora teres/barley (net blotch on barley); format: in vivo; conditions: barley plants cv. Express, spray 0.002% active ingredient, inoculated two days after application, assessed 4 days after inoculation
Experimental: Action Against Puenophora teres/barley (Net Blotch on Barley)
1 week old barley plants cv. […] Two days after application barley plants are inoculated by spraying a spore suspension (3×10^4 conidia/ml) on the test plants. After an incubation period of 2 days at 20° C. and 95% r. h. plants are kept for 2 days at 20° C. and 60% r.h. in a greenhouse. The disease incidence is assessed 4 days after inoculation.

[8] = system: Septoria nodorum; assay: Action against Septoria nodorum/wheat (Septoria leaf spot on wheat); format: in vivo; conditions: wheat plants cv. Arina, spray 0.02% active ingredient, inoculated one day after application, assessed 11 days after inoculation
Experimental: Action Against Septoria nodorum/wheat (Septoria Leaf Spot on Wheat)
1 week old wheat plants cv. […] One day after application wheat plants are inoculated by spraying a spore suspension (5×10^5 conidia/ml) on the test plants. After an incubation period of 1 day at 20° C. and 95% r. h. plants are kept for 10 days at 20° C. and 60% r.h. in a greenhouse. The disease incidence is assessed 11 days after inoculation.

Measured: efficacy (disease incidence)

CCc1cn(C)cc1C(=O)Nc1ccccc1-c1ccc(Cl)cc1 [Compound 1.260]
strong efficacy: [1] | [2] | [3] | [4] | [5] | [6] | [7] | [8]

CCc1cn(C)cc1C(=O)Nc1ccccc1-c1ccc(F)cc1 [Compound 1.261]
strong efficacy: [1] | [2] | [3] | [4] | [5] | [6] | [7] | [8]

CCc1cn(CC)cc1C(=O)Nc1ccccc1-c1ccc(Cl)cc1 [Compound 1.265]
strong efficacy: [1] | [2] | [3] | [4] | [5] | [6] | [7] | [8]

CCc1cn(CC)cc1C(=O)Nc1ccccc1-c1ccc(F)cc1 [Compound 1.266]
strong efficacy: [1] | [2] | [3] | [4] | [5] | [6] | [7] | [8]

CC(C)c1cn(C)cc1C(=O)Nc1ccccc1-c1ccc(Cl)cc1 [Compound 1.268]
strong efficacy: [1] | [2] | [3] | [4] | [5] | [6] | [7] | [8]

CC(C)c1cn(C)cc1C(=O)Nc1ccccc1-c1ccc(F)cc1 [Compound 1.269]
strong efficacy: [1] | [2] | [3] | [4] | [5] | [6] | [7] | [8]

CCn1cc(C(=O)Nc2ccccc2-c2ccc(Cl)cc2)c(C(C)C)c1 [Compound 1.271]
strong efficacy: [1] | [2] | [3] | [4] | [5] | [6] | [7] | [8]

CCn1cc(C(=O)Nc2ccccc2-c2ccc(F)cc2)c(C(C)C)c1 [Compound 1.272]
strong efficacy: [1] | [2] | [3] | [4] | [5] | [6] | [7] | [8]

Cc1cn(C)cc1C(=O)Nc1ccsc1-c1ccc(Cl)cc1 [Compound 2.23]
strong efficacy: [1] | [2] | [3] | [4] | [5] | [6] | [7] | [8]

Cn1cc(C(=O)Nc2ccsc2-c2ccc(Cl)cc2)c(C(F)(F)C(F)(F)F)c1 [Compound 2.190]
strong efficacy: [1] | [2] | [3] | [4] | [5] | [6] | [7] | [8]

Cn1cc(C(=O)Nc2ccsc2-c2ccc(F)cc2)c(C(F)(F)C(F)(F)F)c1 [Compound 2.192]
strong efficacy: [1] | [2] | [3] | [4] | [5] | [6] | [7] | [8]

Cc1cn(C)cc1C(=O)Nc1snnc1-c1ccc(F)cc1 [Compound 4.12]
strong efficacy: [1] | [2] | [3] | [4] | [5] | [6] | [7] | [8]
